Values of other authors as cited in patent US8518435B2 (priority 2011, dated 2013).

Legend:
[1] = tested on: bacteria, viruses, parasites, and yeast/mold/fungus; details: in vitro (in a test tube)
influenza virus = details: mice infected with lethal doses of influenza virus, vs saline controls
rhinovirus IB = details: in vitro; J. Nat. Prod. (1994)

COC(=O)C1=CO[C@@H](C)[C@@H](C=O)[C@@H]1CC(=O)[O-].COC(=O)C1=CO[C@@H](C)[C@@H](C=O)[C@@H]1CC(=O)[O-].[Ca+2] [calcium elenolate]
effectiveness in eliminating organisms [1]: effective in eliminating a very broad range of organisms

CC1(C)[C@@H](O[C@H]2O[C@H](C(=O)O)[C@@H](O)[C@H](O)[C@H]2O[C@@H]2O[C@H](C(=O)O)[C@@H](O)[C@H](O)[C@H]2O)CC[C@]2(C)[C@H]3C(=O)C=C4[C@@H]5C[C@@](C)(C(=O)O)CC[C@]5(C)CC[C@@]4(C)[C@]3(C)CC[C@@H]12 [glycyrrhizin]
lung damage (influenza virus): less lung damage
protection from death (influenza virus): protected from death due to the virus

beta-sesquiphellandrone
IC50 (rhinovirus IB): 440 nM
